Here are results for two compounds from US11105813B2, “Method for target protein identification using thermal stability shift-based fluorescence difference in two-dimensional gel electrophoresis” (priority 2016, dated 2021).

In assay [1] the target is T1, PKCα (Homo sapiens, UniProt P17252).
T1 construct: Jurkat cell was used for bryostatin 1; endogenous in cells; host or cells: Jurkat clone E6-1
In words: CETSA and isothermal dose-response, PKCα. It is filed as cell-based. The following applies: Jurkat cells, 48° C.
Description: HEK293T cells were harvested with trypsin/EDTA solution and resuspended in a conical tube before compound treatment. […] After the compound treatment, cells were aliquoted, heated to a range of temperature for 3 min, and cooled to 25° C. for 3 min. The heated cells were harvested, washed with PBS, and resuspended with lysis buffer (PBS supplemented with protease inhibitor cocktail). The cell suspension was freeze-thawed three times with liquid nitrogen for cell lysis. Soluble fraction was separated from the cell lysate following centrifugation at 20,000 g for 20 min at 4° C. Procedures for isothermal dose-response (ITDR) analysis was identical with the above-mentioned procedures except that cells were treated with various compound concentrations and heated at a fixed temperature.
Western blot—The soluble fraction was mixed with 5×Laemmli buffer followed by heating at 95° C. for 5 min. Proteins were separated by SDS-PAGE and transferred to PVDF membranes. […] The membranes were developed with Amersham ECL prime western blotting detection reagent [GE Healthcare], and detected by ChemiDoc [Bio-Rad]. The relative band intensities to 37° C. was calculated within each of drug-treated group and control group each for the CETSA curves. For ITDR curves, the relative band intensities to DMSO group was calculated. […]

Assay [2] deals with T1, PKCα. Description: Translocation of PKCα between soluble and insoluble fraction (western blot). It is filed as cell-based. As to conditions: lysis buffer without a mild detergent.
For assay [3], the system named is translation of the luciferase reporter gene. Description: In vitro protein translation (luciferase reporter). In kind it is biochemical. As to conditions: 30° C. for 1 h. As to the method:
(§1) In vitro protein translation—TNT quick coupled transcription/translation system [Promega] was used for in vitro translation. TNT Quick Master Mix and T7 luciferase control DNA were mixed according to the manufacturer's protocol, and incubated with compounds at 30° C. for 1 h. After the addition of Luciferase assay reagent [Promega], luminescence from the control luciferase product was read by Synergy HT [BioTek] to measure the effect of compounds on protein translation.
(A reporter such as luciferase makes a cellular process visible.)

For assay [4], the target named is T2, elongation factor 1-delta (EEF1D) (Homo sapiens, UniProt P29692).
T2 construct: hordenine with HEK293T cells at 20 μM for 3 h; endogenous in cells; host or cells: HEK293T
T2 sequence (P29692 1-281): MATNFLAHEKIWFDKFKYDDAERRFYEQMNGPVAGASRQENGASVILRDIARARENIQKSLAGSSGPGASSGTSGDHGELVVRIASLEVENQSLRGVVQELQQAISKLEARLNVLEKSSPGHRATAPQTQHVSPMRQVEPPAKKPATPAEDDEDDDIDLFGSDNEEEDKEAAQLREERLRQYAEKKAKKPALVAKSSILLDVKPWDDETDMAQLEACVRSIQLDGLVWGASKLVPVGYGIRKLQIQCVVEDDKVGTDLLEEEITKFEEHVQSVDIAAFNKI
Description: CETSA, EEF1D. As to conditions: HEK293T cells. In kind it is cell-based. As to the method: (§2) Western blot—The soluble fraction was mixed with 5×Laemmli buffer followed by heating at 95° C. for 5 min. Proteins were separated by SDS-PAGE and transferred to PVDF membranes. The membranes were in tris-buffered saline with Tween-20 (TBST) including 2% BSA for 1 h at 4° C., and incubated with primary antibodies (anti-DHFR [ab133546, abcam], anti-TYMS [3766, Cell signaling], anti-PKCα [2056, Cell signaling], anti-PKCβI [ab195039, abcam], anti-PKCβII [ab32026, abcam], anti-PKCγ [402 ab131222, abcam], anti-PKCδ [9616, Cell signaling], anti-PKCε [ab124806, abcam], anti-PKCμ [2052, Cell signaling], anti-PKCθ [ab110728, abcam], anti-PKCζ [9368, Cell signaling], anti-NPM [ab52644, abcam], anti-RPSA [ab133645, abcam], anti-SET [ab176567, abcam], anti-EEF1D [ab88868, abcam], anti-GAPDH [2118, Cell signaling], and anti-β-tubulin [2146, Cell signaling])) overnight. The membrane was then washed with TBST and incubated with secondary antibodies (anti-rabbit IgG, HRP linked [7074, Cell signaling]) for 1 h at room temperature. The membranes were developed with Amersham ECL prime western blotting detection reagent [GE Healthcare], and detected by ChemiDoc [Bio-Rad]. The relative band intensities to 37° C. was calculated within each of drug-treated group and control group each for the CETSA curves. For ITDR curves, the relative band intensities to DMSO group was calculated.

Assay [5] concerns the target T3, nucleophosmin (NPM) (Homo sapiens, UniProt P06748).
T3 construct: hordenine with HEK293T cells at 20 μM for 3 h; endogenous in cells; host or cells: HEK293T
In words: CETSA and isothermal dose-response, NPM. The following applies: HEK293T cells, compared to β-tubulin and GAPDH. In kind it is cell-based. As to the method:
as §2

The target in assay [6] is T4, protein SET (SET) (Homo sapiens, UniProt Q01105).
T4 construct: hordenine with HEK293T cells at 20 μM for 3 h; endogenous in cells; host or cells: HEK293T
T4 sequence (Q01105 whole entry): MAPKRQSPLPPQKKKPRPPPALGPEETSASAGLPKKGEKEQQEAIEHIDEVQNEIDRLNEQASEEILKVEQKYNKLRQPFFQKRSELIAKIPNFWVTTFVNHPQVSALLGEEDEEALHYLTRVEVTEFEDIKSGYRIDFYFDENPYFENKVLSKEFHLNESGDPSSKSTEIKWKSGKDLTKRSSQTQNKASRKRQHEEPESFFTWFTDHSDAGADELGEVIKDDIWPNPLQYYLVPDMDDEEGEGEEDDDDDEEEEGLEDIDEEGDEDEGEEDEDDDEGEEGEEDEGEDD
Description: CETSA, SET. In kind it is cell-based. As to conditions: HEK293T cells. As to the method:
as §2

The target in assay [7] is T5, NPM (Oryctolagus cuniculus, UniProt G1T0N4).
T5 construct: incubated with the in vitro translation system to scavenge NPM; tissue Promega; host or cells: TNT Quick Master Mix (reticulocyte lysate, own knowledge)
T5 sequence (G1T0N4 1-294): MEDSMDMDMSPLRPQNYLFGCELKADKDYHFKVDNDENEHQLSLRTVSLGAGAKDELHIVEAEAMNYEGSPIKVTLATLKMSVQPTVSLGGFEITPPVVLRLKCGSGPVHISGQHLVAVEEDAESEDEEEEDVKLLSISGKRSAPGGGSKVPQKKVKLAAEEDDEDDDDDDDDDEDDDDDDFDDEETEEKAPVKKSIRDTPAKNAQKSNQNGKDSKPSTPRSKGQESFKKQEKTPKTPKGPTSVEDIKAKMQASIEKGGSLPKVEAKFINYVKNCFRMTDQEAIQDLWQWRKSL
Description: Nucleophosmin depletion for functional validation (in vitro translation). As to conditions: 10 μM of hordenine, 30° C. for 1 h. In kind it is biochemical. As to the method:
as §1
Nucleophosmin depletion for functional validation—Protein G sepharose beads [Sigma] were washed with PBS and incubated with anti-NPM antibody at 4° C. for 2 h. Unbound antibodies were washed away. The anti-NPM bound Protein G beads were mixed with TNT Quick Master Mix and incubated at 4° C. for 2 h. The beads were removed by centrifugation, and the supernatant was incubated with T7 luciferase control DNA and 10 μM of hordenine at 30° C. for 1 h. Luminescence was read after the addition of Luciferase assay reagent.

The target in assay [8] is T6, 40S ribosomal protein SA (RPSA) (Homo sapiens, UniProt P08865).
T6 construct: hordenine with HEK293T cells at 20 μM for 3 h; endogenous in cells; host or cells: HEK293T
In words: CETSA, RPSA. It is filed as cell-based. The following applies: HEK293T cells. As to the method:
as §2

T3 sequence (P06748 whole entry): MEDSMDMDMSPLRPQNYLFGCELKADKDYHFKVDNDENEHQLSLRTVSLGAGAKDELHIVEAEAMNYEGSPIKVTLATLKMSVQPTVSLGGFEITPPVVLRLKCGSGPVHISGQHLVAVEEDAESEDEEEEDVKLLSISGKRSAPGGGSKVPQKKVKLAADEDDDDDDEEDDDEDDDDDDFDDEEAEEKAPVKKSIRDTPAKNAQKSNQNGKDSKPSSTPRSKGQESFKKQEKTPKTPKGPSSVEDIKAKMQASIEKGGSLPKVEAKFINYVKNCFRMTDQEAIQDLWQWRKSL

Regarding `CCC/C=C/C=C/C(=O)O[C@H]1/C(=C/C(=O)OC)C[C@H]2C[C@H]([C@@H](C)O)OC(=O)C[C@H](O)C[C@@H]3C[C@H](OC(C)=O)C(C)(C)[C@](O)(C[C@@H]4C/C(=C/C(=O)OC)C[C@H](/C=C/C(C)(C)[C@]1(O)O2)O4)O3` [bryostatin 1], the “isothermal dose-response of PKCα” value in assay [1] was “dose-dependent thermal destabilization”. Besides, in assay [2], the “location of PKCα (soluble / insoluble fraction)” value is reported as “moved to insoluble fraction”.
Regarding `CN(C)CCc1ccc(O)cc1` [hordenine, N,N-dimethyltyramine], the “effect on translation of the luciferase reporter gene” value in assay [3] was “increase the translation”. The “thermal stability shift of EEF1D (CETSA)” value in assay [4] is “did not”. In assay [5], the “thermal stability shift of NPM (CETSA)” value is “significant thermal stabilization”. Further, in assay [6], the “thermal stability shift of SET (CETSA)” value is recorded as “did not”. Besides, in assay [7], the “upregulating efficacy on luciferase gene translation diminished after NPM depletion” value came to 72.7%. In addition, the “thermal stability shift of RPSA (CETSA)” value in assay [8] is “did not”.
